Data published in ChEMBL document CHEMBL5352493, “Dual inhibitors of ASK1 and PDK1 kinases: Design, synthesis, molecular docking and mechanism studies of N-benzyl pyridine-2-one containing derivatives as anti-fibrotic agents” (Eur J Med Chem, 2023).
The source made the active and inactive calls. No cut-off for these calls is given here.

What was measured:
HFL1 [1] = experiment: Induction of apoptosis in HLF1 cells assessed as early apoptotic cells at 22.5 uM incubated for 24 hrs measured by annexinV-FITC/PI based flow cytometric analysis (reference value: 11.6%); format: functional, Homo sapiens
[2] = Antiproliferative against HLF1 cells measured after 48 hrs by CCK8 assay; format: toxicity, cell-based; settings: human, HFL1 cells (description prints HLF1)
HFL1 [3] = experiment: Downregulation of phosphorylated JNK in TGF-beta1 induced HFL1 cells at 7.5 to 15 uM for 24 hrs by Western blotting analysis; format: functional, cell-based; settings: Homo sapiens, dose 7.5-15 µM
HFL1 [4] = experiment: Downregulation of phosphorylated PDK1 in TGF-beta1 induced HFL1 cells at 7.5 to 15 microM for 24 hrs by Western blotting analysis; format: functional, cell-based; settings: Homo sapiens, dose 7.5-15 µM
[5] = biological target: T1, Mitogen-activated protein kinase kinase kinase 5 (Homo sapiens, UniProt Q99683); experiment: Inhibition of human recombinant ASK1 using MBP as substrate preincubated for 1 hr followed by reagent addition incubated for 40 mins by ATP-Glo kinase assay
T1 sequence (Q99683 whole entry): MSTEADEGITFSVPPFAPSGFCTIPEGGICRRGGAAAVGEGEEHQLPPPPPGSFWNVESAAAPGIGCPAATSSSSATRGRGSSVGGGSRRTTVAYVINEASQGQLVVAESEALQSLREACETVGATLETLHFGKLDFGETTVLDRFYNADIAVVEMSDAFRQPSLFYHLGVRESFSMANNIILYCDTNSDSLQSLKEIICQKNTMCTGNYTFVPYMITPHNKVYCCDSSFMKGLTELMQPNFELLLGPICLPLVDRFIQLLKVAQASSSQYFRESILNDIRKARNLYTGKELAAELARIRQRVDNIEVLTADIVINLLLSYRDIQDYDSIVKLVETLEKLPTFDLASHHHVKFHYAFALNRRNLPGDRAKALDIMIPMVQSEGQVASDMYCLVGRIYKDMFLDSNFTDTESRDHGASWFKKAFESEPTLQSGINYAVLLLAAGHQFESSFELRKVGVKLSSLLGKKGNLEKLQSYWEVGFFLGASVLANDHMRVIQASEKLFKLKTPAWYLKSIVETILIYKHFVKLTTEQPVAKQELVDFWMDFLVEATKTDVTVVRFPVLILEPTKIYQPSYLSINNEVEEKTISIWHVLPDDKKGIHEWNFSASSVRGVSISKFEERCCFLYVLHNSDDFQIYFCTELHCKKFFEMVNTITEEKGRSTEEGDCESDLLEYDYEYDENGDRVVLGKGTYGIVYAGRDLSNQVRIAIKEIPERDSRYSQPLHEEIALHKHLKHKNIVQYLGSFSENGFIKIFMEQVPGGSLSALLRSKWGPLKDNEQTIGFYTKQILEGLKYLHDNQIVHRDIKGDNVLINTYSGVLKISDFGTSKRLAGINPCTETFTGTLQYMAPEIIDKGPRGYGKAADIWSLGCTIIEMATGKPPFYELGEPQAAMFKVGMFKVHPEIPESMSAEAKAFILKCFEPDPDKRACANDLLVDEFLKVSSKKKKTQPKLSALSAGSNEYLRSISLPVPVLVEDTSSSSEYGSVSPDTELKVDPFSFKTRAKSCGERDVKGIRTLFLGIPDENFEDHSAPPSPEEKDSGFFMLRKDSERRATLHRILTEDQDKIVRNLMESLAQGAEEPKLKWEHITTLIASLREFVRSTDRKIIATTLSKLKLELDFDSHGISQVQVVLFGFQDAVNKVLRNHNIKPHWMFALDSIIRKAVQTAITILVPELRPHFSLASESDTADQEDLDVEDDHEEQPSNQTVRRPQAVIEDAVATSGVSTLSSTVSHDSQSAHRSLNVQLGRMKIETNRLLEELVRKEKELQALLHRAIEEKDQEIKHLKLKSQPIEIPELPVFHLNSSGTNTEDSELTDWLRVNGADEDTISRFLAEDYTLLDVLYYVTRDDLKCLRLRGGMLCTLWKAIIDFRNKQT

HFL1 [6] = experiment: Induction of apoptosis in HLF1 cells assessed as viable cells at 22.5 uM incubated for 24 hrs measured by annexinV-FITC/PI based flow cytometric analysis (reference value: 88.3%); format: functional; settings: Homo sapiens, read-out: Activity
HFL1 [7] = experiment: Induction of apoptosis in HLF1 cells assessed as early apoptotic cells at 7.5 uM incubated for 24 hrs measured by annexinV-FITC/PI based flow cytometric analysis (reference value: 11.6%); format: functional, Homo sapiens
HFL1 [8] = experiment: Induction of apoptosis in HLF1 cells assessed as late apoptotic cells at 7.5 uM incubated for 24 hrs measured by annexinV-FITC/PI based flow cytometric analysis (reference value: 0.08%); format: functional, Homo sapiens
HFL1 [9] = experiment: Downregulation of phosphorylated Akt in TGF-beta1 induced HFL1 cells at 7.5 microM for 24 hrs by Western blotting analysis; format: functional, cell-based; settings: Homo sapiens
HFL1 [10] = experiment: Induction of apoptosis in HLF1 cells assessed as early apoptotic cells at 15 uM incubated for 24 hrs measured by annexinV-FITC/PI based flow cytometric analysis (reference value: 11.6%); format: functional, Homo sapiens
[11] = Antiproliferative against rat HSC-T6 cells measured after 48 hrs by CCK8 assay; format: toxicity, cell-based
HFL1 [12] = experiment: Induction of apoptosis in HLF1 cells assessed as necrotic cells at 22.5 uM incubated for 24 hrs measured by annexinV-FITC/PI based flow cytometric analysis (reference value: 0%); format: functional, Homo sapiens
HFL1 [13] = experiment: Induction of apoptosis in HLF1 cells assessed as late apoptotic cells at 15 uM incubated for 24 hrs measured by annexinV-FITC/PI based flow cytometric analysis (reference value: 0.08%); format: functional, Homo sapiens
[14] = Antiproliferative against rat NRK-49F cells measured after 48 hrs by CCK8 assay; format: toxicity, cell-based
[15] = Antiproliferative against human BEAS-2B cells measured after 48 hrs by CCK8 assay; format: toxicity, cell-based
HFL1 [16] = experiment: Antifibrotic activity in TGF-beta1 induced HLF1 cells assessed as decrease in alpha SMA expression level measured at 7.5 to 15 uM after 24 hrs by Western blotting analysis; format: functional, cell-based; settings: Homo sapiens, dose 7.5-15 µM
HFL1 [17] = experiment: Induction of apoptosis in HLF1 cells assessed as viable cells at 7.5 uM incubated for 24 hrs measured by annexinV-FITC/PI based flow cytometric analysis (reference value: 88.3%); format: functional; settings: Homo sapiens, read-out: Activity
HFL1 [18] = experiment: Antifibrotic activity in TGF-beta1 induced HLF1 cells assessed as decrease in phosphorylated smad2 level measured at 7.5 to 15 uM after 24 hrs by Western blotting analysis; format: functional, cell-based; settings: Homo sapiens, dose 7.5-15 µM
HFL1 [19] = experiment: Induction of apoptosis in HLF1 cells assessed as decrease in antiapoptotic Bcl-2 protein at 7.5 to 15 uM for 24 hrs by Western blotting analysis; format: functional, cell-based; settings: Homo sapiens, dose 7.5-15 µM
HFL1 [20] = experiment: Downregulation of phosphorylated ASK1 in TGF-beta1 induced HFL1 cells at 7.5 to 15 uM for 24 hrs by Western blotting analysis; format: functional, cell-based; settings: Homo sapiens, dose 7.5-15 µM
HFL1 [21] = experiment: Downregulation of phosphorylated p38 in TGF-beta1 induced HFL1 cells at 7.5 to 15 uM for 24 hrs by Western blotting analysis; format: functional, cell-based; settings: Homo sapiens, dose 7.5-15 µM
HFL1 [22] = experiment: Antifibrotic activity in TGF-beta1 induced HLF1 cells assessed as decrease in collagen - I expression level measured at 7.5 to 15 uM after 24 hrs by Western blotting analysis; format: functional, cell-based; settings: Homo sapiens, dose 7.5-15 µM
HFL1 [23] = experiment: Induction of apoptosis in HLF1 cells assessed as necrotic cells at 7.5 uM incubated for 24 hrs measured by annexinV-FITC/PI based flow cytometric analysis (reference value: 0%); format: functional, Homo sapiens
HFL1 [24] = experiment: Induction of apoptosis in HLF1 cells assessed as necrotic cells at 15 uM incubated for 24 hrs measured by annexinV-FITC/PI based flow cytometric analysis (reference value: 0%); format: functional, Homo sapiens
HFL1 [25] = experiment: Antifibrotic activity in TGF-beta1 induced HLF1 cells assessed as decrease in phosphorylated smad3 level measured at 7.5 to 15 uM after 24 hrs by Western blotting analysis; format: functional, cell-based; settings: Homo sapiens, dose 7.5-15 µM
HFL1 [26] = experiment: Induction of apoptosis in HLF1 cells assessed as late apoptotic cells at 22.5 uM incubated for 24 hrs measured by annexinV-FITC/PI based flow cytometric analysis (reference value: 0.08%); format: functional, Homo sapiens
HFL1 [27] = experiment: Induction of apoptosis in HLF1 cells assessed as viable cells at 15 uM incubated for 24 hrs measured by annexinV-FITC/PI based flow cytometric analysis (reference value: 88.3%); format: functional; settings: Homo sapiens, read-out: Activity

Compound: O=C(Nc1cccc(-c2nncn2C2CC2)n1)c1cc(-c2cnn(C3CC3)c2)cn(Cc2ccccc2F)c1=O
- Activity (HFL1 [1]): 30.3%
- IC50 at 48 h [2]: 15.2 µM
- Activity (HFL1 [3]): Active
- Activity (HFL1 [4]): Dose-Dependent Effect
- IC50 [5]: 0.00173 µM
- viability at 22.5 µM (HFL1 [6]): 69.6%
- Activity (HFL1 [7]): 28.7%
- Activity (HFL1 [8]): 0.083%
- Activity (HFL1 [9]): Active
- Activity (HFL1 [10]): 32.3%
- IC50 at 48 h [11]: 35.5 µM
- Activity (HFL1 [12]): 0.015%
- Activity (HFL1 [13]): 0.079%
- IC50 at 48 h [14]: 21.1 µM
- IC50 at 48 h [15]: 36 µM
- Activity (HFL1 [16]): Dose-Dependent Effect
- viability at 7.5 µM (HFL1 [17]): 71.2%
- Activity (HFL1 [18]): Active
- Activity (HFL1 [19]): Active
- Activity (HFL1 [20]): Active
- Activity (HFL1 [21]): Active
- Activity (HFL1 [22]): Dose-Dependent Effect
- Activity (HFL1 [23]): 0%
- Activity (HFL1 [24]): 0%
- Activity (HFL1 [25]): Active
- Activity (HFL1 [26]): 0.104%
- viability at 15 µM (HFL1 [27]): 67.6%
